Numbers after ± are expanded uncertainties.
Test: xn = mol fraction of the nth substance listed
Conditions: Liquid, Vibrating tube method

C=CC [propene] + CC(C)O
Conditions | mass density [kg/m3]
325.09 K, 5370.7 kPa, x1 = 0.2011 | 709.32 ± 0.74
325.09 K, 5883.5 kPa, x1 = 0.2011 | 709.98 ± 0.75
325.09 K, 6336.2 kPa, x1 = 0.2011 | 710.58 ± 0.75
325.09 K, 6788.4 kPa, x1 = 0.2011 | 711.17 ± 0.75
325.09 K, 7346.6 kPa, x1 = 0.2011 | 711.9 ± 0.75
325.09 K, 7879.3 kPa, x1 = 0.2011 | 712.57 ± 0.75
325.09 K, 8392.5 kPa, x1 = 0.2011 | 713.18 ± 0.75
325.09 K, 8985.2 kPa, x1 = 0.2011 | 713.89 ± 0.76
325.09 K, 9587.7 kPa, x1 = 0.2011 | 714.65 ± 0.76
325.13 K, 1747.5 kPa, x1 = 0.6478 | 573.29 ± 0.62
325.13 K, 2151.8 kPa, x1 = 0.6478 | 574.52 ± 0.63
325.13 K, 2607.5 kPa, x1 = 0.6478 | 575.84 ± 0.63
325.13 K, 3022.1 kPa, x1 = 0.6478 | 577 ± 0.64
325.13 K, 3422.7 kPa, x1 = 0.6478 | 578.16 ± 0.64
325.13 K, 3826.3 kPa, x1 = 0.6478 | 579.23 ± 0.64
325.13 K, 4289 kPa, x1 = 0.6478 | 580.41 ± 0.64
325.13 K, 4682.5 kPa, x1 = 0.6478 | 581.48 ± 0.65
325.13 K, 5094.6 kPa, x1 = 0.6478 | 582.53 ± 0.65
325.13 K, 5524.8 kPa, x1 = 0.6478 | 583.59 ± 0.65
325.13 K, 5972.2 kPa, x1 = 0.6478 | 584.68 ± 0.66
325.13 K, 6431 kPa, x1 = 0.6478 | 585.75 ± 0.66
325.13 K, 6923.3 kPa, x1 = 0.6478 | 586.94 ± 0.66
325.13 K, 7433.5 kPa, x1 = 0.6478 | 588.03 ± 0.67
325.13 K, 7935 kPa, x1 = 0.6478 | 589.22 ± 0.67
325.13 K, 8459.9 kPa, x1 = 0.6478 | 590.39 ± 0.67
325.13 K, 9024 kPa, x1 = 0.6478 | 591.62 ± 0.68
325.13 K, 9558.5 kPa, x1 = 0.6478 | 592.78 ± 0.68
350.12 K, 2332.3 kPa, x1 = 0.5201 | 576.59 ± 0.63
350.12 K, 2731.4 kPa, x1 = 0.5201 | 577.92 ± 0.63
350.12 K, 2992.4 kPa, x1 = 0.5201 | 578.85 ± 0.64
350.12 K, 3218 kPa, x1 = 0.5201 | 579.68 ± 0.64
350.12 K, 3506.1 kPa, x1 = 0.5201 | 580.58 ± 0.64
350.12 K, 3765.6 kPa, x1 = 0.5201 | 581.46 ± 0.64
350.12 K, 4225.5 kPa, x1 = 0.5201 | 582.95 ± 0.65
350.12 K, 4550.6 kPa, x1 = 0.5201 | 583.87 ± 0.65
350.12 K, 4824.4 kPa, x1 = 0.5201 | 584.73 ± 0.65
350.12 K, 5103.7 kPa, x1 = 0.5201 | 585.64 ± 0.65
350.12 K, 5399.3 kPa, x1 = 0.5201 | 586.54 ± 0.65
350.12 K, 5715.5 kPa, x1 = 0.5201 | 587.44 ± 0.66
350.12 K, 5999.5 kPa, x1 = 0.5201 | 588.29 ± 0.66
350.12 K, 6303.9 kPa, x1 = 0.5201 | 589.18 ± 0.66
350.12 K, 6632.8 kPa, x1 = 0.5201 | 590.1 ± 0.66
350.12 K, 6975.5 kPa, x1 = 0.5201 | 591.05 ± 0.67
350.12 K, 7280 kPa, x1 = 0.5201 | 591.94 ± 0.67
350.12 K, 7641.3 kPa, x1 = 0.5201 | 592.87 ± 0.67
350.12 K, 7963.5 kPa, x1 = 0.5201 | 593.76 ± 0.67
350.12 K, 8312 kPa, x1 = 0.5201 | 594.68 ± 0.68
350.12 K, 8762.4 kPa, x1 = 0.5201 | 595.82 ± 0.68
350.12 K, 9211 kPa, x1 = 0.5201 | 596.88 ± 0.68
350.12 K, 9622.9 kPa, x1 = 0.5201 | 597.92 ± 0.69
350.18 K, 1639.5 kPa, x1 = 0.2011 | 677.13 ± 0.71
350.18 K, 2070 kPa, x1 = 0.2011 | 677.93 ± 0.71
350.18 K, 2446.2 kPa, x1 = 0.2011 | 678.64 ± 0.71
350.18 K, 2689 kPa, x1 = 0.6478 | 531.01 ± 0.6
350.18 K, 2924.3 kPa, x1 = 0.2011 | 679.5 ± 0.71
350.18 K, 3126.3 kPa, x1 = 0.6478 | 533.02 ± 0.61
350.18 K, 3271.4 kPa, x1 = 0.2011 | 680.17 ± 0.72
350.18 K, 3675.3 kPa, x1 = 0.2011 | 680.86 ± 0.72
350.18 K, 3686.2 kPa, x1 = 0.6478 | 535.68 ± 0.61
350.18 K, 3914.3 kPa, x1 = 0.6478 | 536.74 ± 0.62
350.18 K, 4058.4 kPa, x1 = 0.2011 | 681.6 ± 0.72
350.18 K, 4203.2 kPa, x1 = 0.6478 | 537.97 ± 0.62
350.18 K, 4446.8 kPa, x1 = 0.2011 | 682.32 ± 0.72
350.18 K, 4484.6 kPa, x1 = 0.6478 | 539.15 ± 0.62
350.18 K, 4738.5 kPa, x1 = 0.6478 | 540.5 ± 0.62
350.18 K, 4791.3 kPa, x1 = 0.2011 | 682.93 ± 0.72
350.18 K, 5023.4 kPa, x1 = 0.6478 | 541.63 ± 0.62
350.18 K, 5171.9 kPa, x1 = 0.2011 | 683.6 ± 0.72
350.18 K, 5321.2 kPa, x1 = 0.6478 | 542.86 ± 0.63
350.18 K, 5557.4 kPa, x1 = 0.2011 | 684.26 ± 0.73
350.18 K, 5614 kPa, x1 = 0.6478 | 543.95 ± 0.63
350.18 K, 5938.9 kPa, x1 = 0.6478 | 545.1 ± 0.63
350.18 K, 6002 kPa, x1 = 0.2011 | 684.96 ± 0.73
350.18 K, 6268.4 kPa, x1 = 0.6478 | 546.35 ± 0.64
350.18 K, 6430.2 kPa, x1 = 0.2011 | 685.69 ± 0.73
350.18 K, 6622.1 kPa, x1 = 0.6478 | 547.76 ± 0.64
350.18 K, 6978.6 kPa, x1 = 0.6478 | 548.98 ± 0.64
350.18 K, 7071.2 kPa, x1 = 0.2011 | 686.73 ± 0.73
350.18 K, 7362 kPa, x1 = 0.6478 | 550.27 ± 0.65
350.18 K, 7570.5 kPa, x1 = 0.2011 | 687.62 ± 0.73
350.18 K, 7736.5 kPa, x1 = 0.6478 | 551.56 ± 0.65
350.18 K, 7944.1 kPa, x1 = 0.2011 | 688.25 ± 0.74
350.18 K, 8126.2 kPa, x1 = 0.6478 | 552.91 ± 0.65
350.18 K, 8386.8 kPa, x1 = 0.2011 | 688.92 ± 0.74
350.18 K, 8525.5 kPa, x1 = 0.6478 | 554.11 ± 0.66
350.18 K, 8826.8 kPa, x1 = 0.2011 | 689.6 ± 0.74
350.18 K, 8979.8 kPa, x1 = 0.6478 | 555.58 ± 0.66
350.18 K, 9279 kPa, x1 = 0.2011 | 690.38 ± 0.74
350.18 K, 9488 kPa, x1 = 0.6478 | 557.04 ± 0.66
350.18 K, 9779.6 kPa, x1 = 0.2011 | 691.08 ± 0.74
350.18 K, 9989.8 kPa, x1 = 0.6478 | 558.59 ± 0.67

Conditions | mass density [kg/m3]
325.09 K, x1 = 0.2011 | 703.01 ± 0.73
325.13 K, x1 = 0.6478 | 573.24 ± 0.62
350.12 K, x1 = 0.5201 | 575.99 ± 0.62
350.18 K, x1 = 0.2011 | 676.38 ± 0.7
350.18 K, x1 = 0.6478 | 530.66 ± 0.59
